pEC50, pIC50, pKi: −log10 of the molar value. “And” between values parts separate entries of the source, which are not always exact repeats. Equal values may be shown once. “Also recorded” adds a separate entry of the source. Read-outs that look alike come from different tables or passages of the source.
Assays:
[1] = molecular target: T1, Dm5-HT2B (Drosophila melanogaster, UniProt Q8INQ6); experiment: Ca2+ fluorimetry (Fluo-4), agonist activation of Dm5-HT2B expressed in HEK 293 cells; type: cell-based; conditions: for change in Ca2+-dependent Fluo-4 fluorescence: biogenic amines 1 μM each
T1 sequence (Q8INQ6 entry or part of it): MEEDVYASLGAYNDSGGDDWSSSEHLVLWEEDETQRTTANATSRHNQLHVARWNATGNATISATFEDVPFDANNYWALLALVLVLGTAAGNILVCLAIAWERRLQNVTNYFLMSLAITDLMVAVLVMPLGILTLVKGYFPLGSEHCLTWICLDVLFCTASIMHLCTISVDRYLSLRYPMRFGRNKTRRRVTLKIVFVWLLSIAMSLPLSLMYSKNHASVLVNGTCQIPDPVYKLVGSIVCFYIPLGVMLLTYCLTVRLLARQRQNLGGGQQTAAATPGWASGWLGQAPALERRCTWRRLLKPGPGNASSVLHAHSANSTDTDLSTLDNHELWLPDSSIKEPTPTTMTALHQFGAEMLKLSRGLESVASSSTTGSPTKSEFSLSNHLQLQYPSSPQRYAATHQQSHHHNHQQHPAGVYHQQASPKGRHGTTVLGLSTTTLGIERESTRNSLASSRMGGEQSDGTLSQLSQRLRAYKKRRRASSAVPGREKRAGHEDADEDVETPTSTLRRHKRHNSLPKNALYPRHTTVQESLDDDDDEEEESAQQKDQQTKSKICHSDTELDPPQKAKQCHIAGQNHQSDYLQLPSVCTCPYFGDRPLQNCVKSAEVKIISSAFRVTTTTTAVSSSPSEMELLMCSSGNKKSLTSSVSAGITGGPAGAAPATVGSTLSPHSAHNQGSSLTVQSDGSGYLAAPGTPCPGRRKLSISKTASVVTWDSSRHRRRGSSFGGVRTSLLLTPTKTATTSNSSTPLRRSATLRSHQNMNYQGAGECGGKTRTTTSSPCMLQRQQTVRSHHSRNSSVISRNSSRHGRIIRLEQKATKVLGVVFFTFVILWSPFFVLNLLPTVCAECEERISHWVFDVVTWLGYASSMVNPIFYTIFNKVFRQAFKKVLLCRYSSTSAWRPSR
Experimental: Stably transfected cells were selected in the presence of the antibiotic G418 (0.8 mg/ml). Isolated foci were propagated and analyzed for the expression of Dm5-HT2B-HA receptor either by immunocytochemistry, Western blotting or by functional Ca^2+ imaging upon receptor activation.
The ability of the Dm5-HT2B-HA receptor (hereafter referred to as Dm5-HT2B) to activate Gq proteins was assessed by monitoring changes in [Ca^2+]i with the Ca^2+-sensitive fluorescent dye Fluo-4 (Invitrogen). Non-transfected HEK 293 cells and cells expressing Dm5-HT2B were grown in minimal essential medium (MEM + GlutaMAX^TMI (Gibco/ThermoFisher Scientific, Darmstadt, Germany) containing 2% (w/v) Utroser^TM G (Pall, Dreieich, Germany), 1 × non-essential amino acids and 1 × antibiotics/antimycotics) in 96-well plates to a density of ∼3 × 10^4 cells per well. In this format, each vertical row (=8 wells) of the 96-well plate is incubated with the same ligand concentration. […] Plates were transferred into a fluorescence reader (FLUOstar Galaxy/Optima; BMG Labtech, Offenburg, Germany) to monitor Fluo-4 fluorescence. […] Various concentrations of biogenic amines and synthetic receptor ligands were added, once Fluo-4 fluorescence had reached a stable value in each well. The changes in Fluo-4 fluorescence were recorded automatically. Concentration-response curves for putative agonists/antagonists were established in at least two independent experiments with octuplicate determinations (s.a.) per data point.

[2] = test system: non-transfected HEK 293 cells; experiment: Ca2+ fluorimetry (Fluo-4) in non-transfected HEK 293 cells (control); type: cell-based; conditions: for change in Ca2+-dependent Fluo-4 fluorescence: biogenic amines 1 μM each
Experimental: (§1) The ability of the Dm5-HT2B-HA receptor (hereafter referred to as Dm5-HT2B) to activate Gq proteins was assessed by monitoring changes in [Ca^2+]i with the Ca^2+-sensitive fluorescent dye Fluo-4 (Invitrogen). Non-transfected HEK 293 cells and cells expressing Dm5-HT2B were grown in minimal essential medium (MEM + GlutaMAX^TMI (Gibco/ThermoFisher Scientific, Darmstadt, Germany) containing 2% (w/v) Utroser^TM G (Pall, Dreieich, Germany), 1 × non-essential amino acids and 1 × antibiotics/antimycotics) in 96-well plates to a density of ∼3 × 10^4 cells per well. In this format, each vertical row (=8 wells) of the 96-well plate is incubated with the same ligand concentration. Cells were loaded at room temperature with Fluo-4 as described earlier ([Thamm et al., 2013]; [Blankenburg et al., 2015]) in extracellular solution [ES = in mM: 120 NaCl, 5 KCl, 2 MgCl2, 2 CaCl2, 10 HEPES, 10 Glucose, pH 7.4 (NaOH)]. Plates were transferred into a fluorescence reader (FLUOstar Galaxy/Optima; BMG Labtech, Offenburg, Germany) to monitor Fluo-4 fluorescence. The excitation wavelength was 485 nm, and fluorescence emission was detected at 520 nm. Various concentrations of biogenic amines and synthetic receptor ligands were added, once Fluo-4 fluorescence had reached a stable value in each well. The changes in Fluo-4 fluorescence were recorded automatically. Concentration-response curves for putative agonists/antagonists were established in at least two independent experiments with octuplicate determinations (s.a.) per data point.

[3] = molecular target: T1, Dm5-HT2B; experiment: Ca2+ fluorimetry (Fluo-4), antagonists on serotonin-stimulated Dm5-HT2B-expressing HEK 293 cells; type: cell-based; conditions: for effect on serotonin-stimulated Dm5-HT2B-expressing cells: 10^-9 M to 10^-4 M antagonist on 10^-7 M serotonin; for Maximal inhibition: relative efficacy, signal with 10^-7 M serotonin = 100%
Experimental: as §1
Next, we examined the ability of potential receptor antagonists for impairing Dm5-HT2B activity.

[4] = test system: Am5-HT2A; set-up: method as in Thamm et al., 2013; conditions: ref Thamm et al., 2013, cited from earlier work; for pEC50: Am5-HT2A in HEK 293 cells
[5] = test system: Am5-HT2B; set-up: method as in Thamm et al., 2013; conditions: ref Thamm et al., 2013, cited from earlier work; for pEC50: Am5-HT2B in HEK 293 cells; for Ca2+-dependent fluorescence blocked to: residual signal
[6] = test system: Cv5-HT2A; set-up: method as in Röser et al., 2012; conditions: ref Röser et al., 2012, cited from earlier work; for pEC50: Cv5-HT2A in HEK 293 cells
[7] = test system: Rp5-HT2B; set-up: method as in Paluzzi et al., 2015; conditions: ref Paluzzi et al., 2015, cited from earlier work; for receptor activity reduced by: Rp5-HT2B, highest of three concentrations tested (10^-7, 10^-6, 10^-5 M)
[8] = molecular target: T1, Dm5-HT2B; set-up: method as in Gasque et al. (2013); conditions: Dm5-HT2B in HEK 293T cells, individual cells; ref Gasque et al. (2013); cited from earlier work
[9] = test system: D. melanogaster larvae; set-up: method as in Gasque et al., 2013; conditions: ref Gasque et al., 2013; cited from earlier work
[10] = molecular target: tyramine receptor TyrR (CG7431); set-up: method as in Arakawa et al., 1990; conditions: ref Arakawa et al., 1990; cited from earlier work
[11] = test system: β-adrenergic-like octopamine receptor Octβ3R (CG42244); set-up: method as in Maqueira et al., 2005; conditions: only 10^-5 M tested; ref Maqueira et al., 2005; cited from earlier work
[12] = background of 10^-7 M serotonin, Dm5-HT2B-expressing HEK 293 cells

NCCc1c[nH]cn1 [histamine]
change in Ca2+-dependent Fluo-4 fluorescence ([1]; Dm5-HT2B-expressing cells): caused a rise in Ca^2+-dependent Fluo-4 fluorescence
change in Ca2+-dependent Fluo-4 fluorescence [2]: caused a rise in Ca^2+-dependent Fluo-4 fluorescence

CC[C@@H](CO)NC(=O)[C@@H]1C=C2c3cccc4c3c(cn4C)C[C@H]2N(C)C1 [Methysergide, methysergide]
effect on serotonin-stimulated Dm5-HT2B-expressing cells [3]: did not observe any effect; also recorded: completely lacked inhibitory potential
IC50 [3, 12]: no effect

CCCN(CCC)C1CCc2cccc(O)c2C1 (stereo not drawn) [8-OH-DPAT, 8-Hydroxy-2-(di-n-propylamino)tetralin]
pEC50 [1]: ~3.19
pEC50 [4]: 4.25
pEC50 [5]: 6.25
pEC50 [6]: 4.21

Cc1cc2c(cc1Cl)N(C(=O)Nc1ccc(Oc3cccnc3C)nc1)CC2 [SB 242084]
effect on serotonin-stimulated Dm5-HT2B-expressing cells [3]: did not observe any effect; also recorded: completely lacked inhibitory potential
IC50 [3, 12]: no effect

CN1CCN2c3ccccc3Cc3ccccc3C2C1 (stereo not drawn) [Mianserin, mianserin]
serotonin-induced Ca2+-dependent fluorescence reduced by ([4]; Am5-HT2A): 49%
Ca2+-dependent fluorescence blocked to ([5]; Am5-HT2B): 24%
receptor activity reduced by [7]: ≥ 50%

NCCc1ccc(O)c(O)c1 [dopamine]
change in Ca2+-dependent Fluo-4 fluorescence ([1]; Dm5-HT2B-expressing cells): Neither dopamine, octopamine nor tyramine evoked responses
change in Ca2+-dependent Fluo-4 fluorescence [2]: Neither dopamine, octopamine nor tyramine evoked responses

NCCc1ccc(O)cc1 [tyramine]
change in Ca2+-dependent Fluo-4 fluorescence ([1]; Dm5-HT2B-expressing cells): Neither dopamine, octopamine nor tyramine evoked responses
change in Ca2+-dependent Fluo-4 fluorescence [2]: Neither dopamine, octopamine nor tyramine evoked responses

CN1CCN(C2=Nc3cc(Cl)ccc3Nc3ccccc32)CC1 [Clozapine, clozapine]
Ca2+-dependent fluorescence blocked to ([5]; Am5-HT2B): 5%

CN1CCC(=C2c3ccccc3C=Cc3ccccc32)CC1 [Cyproheptadine, cyproheptadine]
serotonin-induced Ca2+-dependent fluorescence reduced by ([4]; Am5-HT2A): 36%
Ca2+-dependent fluorescence blocked to ([5]; Am5-HT2B): 23%
receptor activity reduced by [7]: ≥ 50%

NCC(O)c1ccc(O)cc1 (stereo not drawn) [octopamine]
change in Ca2+-dependent Fluo-4 fluorescence ([1]; Dm5-HT2B-expressing cells): Neither dopamine, octopamine nor tyramine evoked responses
change in Ca2+-dependent Fluo-4 fluorescence [2]: Neither dopamine, octopamine nor tyramine evoked responses

NCCc1c[nH]c2ccc(O)cc12 [serotonin, 5-hydroxytryptamine]
concentration at which the concentration-response curve saturated ([1]; Dm5-HT2B-expressing cells): 30 µM
change in Ca2+-dependent Fluo-4 fluorescence ([1]; Dm5-HT2B-expressing cells): increase in the fluorescence signal
fluorescence signal at the highest ligand concentration ([2]; 10^-4 M): slight increase in the fluorescence signal
change in Ca2+-dependent Fluo-4 fluorescence [2]: not in non-transfected cells
pEC50 [4]: 7.59
pEC50 [5]: 7.49
pEC50 [6]: 7.62
pEC50 ([7]; Rp5-HT2B in CHOK1-aeq cells): 6.70

COc1ccc2[nH]cc(CCN)c2c1 [5-methoxytryptamine]
pEC50 ([1]; EC50 (half-maximal activation of Dm5-HT2B), Dm5-HT2B-expressing HEK 293 cells, Fluo-4 fluorescence, concentrations 10^-9 M to 10^-4 M): 5.98 and ~6.00
pEC50 [4]: 7.15
pEC50 [5]: 7.22
pEC50 [6]: 7.17

O=C(CCCN1CCC2(CC1)C(=O)NCN2c1ccccc1)c1ccc(F)cc1 [Spiperone, spiperone]
effect on serotonin-stimulated Dm5-HT2B-expressing cells [3]: caused a reduction of the cellular response; also recorded: the responses did not saturate
IC50 [3, 12]: no saturation
Maximal inhibition [3]: 25%

O=C(c1ccc(F)cc1)C1CCN(CCn2c(=O)[nH]c3ccccc3c2=O)CC1 [Ketanserin, ketanserin]
effect on serotonin-stimulated Dm5-HT2B-expressing cells [3]: did not observe any effect; also recorded: completely lacked inhibitory potential
IC50 [3, 12]: no effect
receptor activity reduced by [7]: ≥ 50%

CSc1ccc2c(c1)C(N1CCN(C)CC1)Cc1ccccc1S2 (stereo not drawn) [Metitepine, metitepine]
pIC50 ([3]; IC50, background of 10^-7 M serotonin, Dm5-HT2B-expressing HEK 293 cells): 5.45
IC50 ([3]; Log IC50 ± SD, logarithm of the IC50 (M), background of 10^-7 M serotonin): 3.55e-06 M
Maximal inhibition [3]: 35%
inhibition range (IC50) ([4]; Am5-HT2A): micromolar range
serotonin-induced Ca2+-dependent fluorescence reduced by ([4]; Am5-HT2A): 39%
antagonist activity ([5]; Am5-HT2B): did not have any activity at all
pIC50 ([6]; Cv5-HT2A): 5.92
serotonin-induced Ca2+ signals reduced to % of control measurements ([6]; Cv5-HT2A): 15%
pIC50 [8]: 5.70
effect on food intake [9]: potent anorectic drug

CCN(CC)CCNC(=O)c1cc(Cl)c(N)cc1OC [Metoclopramide, metoclopramide]
pIC50 ([3]; background of 10^-7 M serotonin, Dm5-HT2B-expressing HEK 293 cells, read-out: IC50): 7.80
IC50 ([3]; logarithm of the IC50 (M), background of 10^-7 M serotonin, read-out: Log IC50 ± SD (converted)): 1.58e-08 M
Maximal inhibition [3]: 60%
serotonin-evoked Ca2+ response reduced to % of control measurements without antagonist ([3]; residual signal at maximal inhibition): 40%
pKi [10]: 5.34
effect on receptor [11]: block

COc1cc2nc(N3CCN(C(=O)c4ccco4)CC3)nc(N)c2cc1OC [Prazosin, prazosin]
effect on serotonin-stimulated Dm5-HT2B-expressing cells [3]: caused a reduction of the cellular response; also recorded: the responses did not saturate
IC50 [3, 12]: no saturation
Maximal inhibition [3]: 50%
